Assay results from patent publication US20250346550A1, “METHODS OF MODULATING ENDONUCLEASE G USING RESVERATROL AND ITS DERIVATIVES” (THE REGENTS OF THE UNIVERSITY OF COLORADO A BODY CORPORATE, priority 2022, published 2025).

Experiments:
[1] = test system: α-synuclein-induced dopaminergic neuronal death in baIn11 animals; experiment: α-synuclein-based Parkinson's Disease model, DA neuronal death; format: in vivo, C. elegans; conditions: 50 μM, adult day 2 (FIG. 8c)
From the text: FIG. 8. […] In each experiment, 300 animals were scored to determine the percentage of animals losing at least one dopaminergic neuron in the head. Data are mean±s.e.m. *P<0.05; ***P<0.001, two-sided, unpaired t-test.
FIG. 13. […] In each experiment, 300 animals were scored to determine the percentage of animals losing at least one of the six dopaminergic neurons in the head. Data are mean±s.e.m. ****P<0.001, two-sided, unpaired t-test.
In addition to PME and apoptosis, EndoG was previously shown to play an important role in mediating dopaminergic (DA) neuronal death induced by expression of human α-synuclein, which is widely considered to be a major proponent of Parkinson's disease. However, the mechanism by which EndoG mediates α-synuclein-induced neurodegeneration is unclear. In a C. elegans α-synuclein-based Parkinson's Disease model, co-expression of GFP and human α-synuclein in C. elegans dopaminergic neurons under the control of the promoter of the dat-1 gene, which encodes a dopamine transporter, from an integrated transgene baIn11 (Pdat-1::gfp/Pdat-1::α-synuclein) caused DA neuronal death in 30% of adult baIn11 animals (FIG. 8a). The cps-6(tm3222) mutation blocked DA neuronal death in adult baIn11 animals (FIG. 8a), confirming that CPS-6 is important for α-synuclein-induced DA neuronal death.

[2] = test system: paternal mitochondrial elimination (PME) in C. elegans wild-type (N2) cross-fertilized embryos; experiment: PME fluorescent microscopy assay (MTR-stained paternal mitochondrial clusters), N2 males x N2 hermaphrodites; format: in vivo; conditions: for effect on PME in the screen: compound 100 μM, 64-cell stage embryos (FIG. 1a)
Protocol: FIG. 1. […] The numbers of MTR-stained paternal mitochondrial clusters in 64-cell cross-fertilized embryos from mating of MTR-stained N2 males with N2 hermaphrodites in the presence of the indicated compounds (100 μM) were scored. n≥15 embryos for each compound. b, d-g, Quantification of MTR-stained paternal mitochondrial clusters in 64-cell stage embryos (b, d-f) or in embryos at the indicated stage (g) from the cross between MTR-stained N2 males and N2 hermaphrodites, in the presence of 0.25% ethanol (Mock) or 50 μM of the indicated compound. In each experiment, n>40 embryos (b,d,e), n=20 embryos (f), and n≥10 embryos (g) were scored, respectively. […] Data are mean±s.e.m. **P<0.01, ***P<0.001; n.s., not significant, two-sided, unpaired t-test.
FIG. 7. Effects of different dosages of resveratrol isomers on PME. a, b, The effects of different dosages of cis-resveratrol (a) and trans-resveratrol (b) on PME. The numbers of MTR-stained paternal mitochondrial clusters in 64-cell embryos (a) or 16-cell embryos (b) from mating of MTR-stained N2 males with N2 hermaphrodites in the presence of the indicated concentrations of resveratrol isomers were scored. […] N2 hermaphrodites and MTR-stained uaDf5/+ males were mated as indicated in the presence of 0.25% ethanol (Mock, d), 50 μM trans-resveratrol (e), or 50 μM cis-resveratrol (f). Males also carried smIs42, an integrated Psur-5sur-5::gfp transgene, which directs GFP expression in all somatic cells in most developmental stages, and was used to track cross progeny. A single cross-fertilized embryo or larva (MTR- or GFP-positive) at the indicated stage was analyzed by PCR. uaDf5/+ and N2 hermaphrodites were controls.
FIG. 12. […] Quantification of MTR-stained paternal mitochondrial clusters at the indicated embryonic stages from the cross between MTR-stained N2 males and N2 hermaphrodites, in the presence of 0.25% ethanol (Mock) or 50 μM of the indicated compound. In each experiment, n≥10 embryos embryos. Data are mean±s.e.m. **P<0.01, ***P<0.001; n.s., not significant, two-sided, unpaired t-test.
Following fertilization, paternal mitochondria are rapidly depolarized and damaged in fertilized eggs, which could generate and release reactive oxygen species (ROS) that affect PME and embryo development. We thus screened twelve small molecules derived from natural products that have been used as antioxidants for the potential activity in modulating PME (FIG. 6a), using a fluorescent microscopy assay. In this assay, C. elegans wild-type (N2) males prestained with Mitotracker Red (MTR), a mitochondrion-specific fluorescent dye, were mated with unstained N2 hermaphrodites in the presence of the compound of interest ([…]) and the cross-fertilized embryos were examined for the presence of MTR-stained paternal mitochondria or mitochondrial clusters.

CPS-6 = biological target: T1, CPS-6 (Caenorhabditis elegans, UniProt Q95NM6); experiment: plasmid DNA cleavage assay; format: biochemical, C. elegans; conditions: 20 μM
T1 construct: Recombinant CPS-6 protein was incubated with the supercoiled plasmid DNA substrate
T1 sequence (Q95NM6 1-308): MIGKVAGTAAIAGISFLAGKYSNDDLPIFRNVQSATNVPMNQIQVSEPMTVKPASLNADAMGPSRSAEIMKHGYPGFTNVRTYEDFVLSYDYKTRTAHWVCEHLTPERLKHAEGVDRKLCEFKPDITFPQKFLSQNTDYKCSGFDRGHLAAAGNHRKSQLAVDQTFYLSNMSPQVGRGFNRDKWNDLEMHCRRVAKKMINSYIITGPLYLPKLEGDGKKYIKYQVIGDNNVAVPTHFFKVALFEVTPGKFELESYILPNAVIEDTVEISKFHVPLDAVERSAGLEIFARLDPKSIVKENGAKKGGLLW
Protocol: FIG. 3. Resveratrol isomers target CPS-6 to affect PME. a, b, Both cis-resveratrol and trans-resveratrol act paternally to affect PME. The numbers of MTR-stained paternal mitochondrial clusters in embryos at 64-cell (a) or 16-cell (b) stage from the indicated crosses were scored. N2 males or hermaphrodites were pretreated with 0.25% ethanol (Mock), 50 μM cis-resveratrol (a), or 50 μM trans-resveratrol (b) as indicated before mating. c-g, Quantification of MTR-stained paternal mitochondrial clusters in 64-cell embryos from the indicated crosses treated with 0.25% ethanol (Mock), 50 μM cis-resveratrol, and 50 μM trans-resveratrol, respectively. Alleles used are lgg-1(bp523), cps-6(tm3222) and rad-23(tm2595). Data are mean s.e.m; n≥15 embryos (a) and n≥20 embryos (b, c-g) were scored in each experiment. ***P<0.001; n.s., not significant, two-sided, unpaired t-test. h, Resveratrol isomers enhance or inhibit the nuclease activity of CPS-6 in a plasmid DNA cleavage assay. 10 ng of CPS-6 were incubated with 0.25% ethanol (Mock), 20 μM cis-resveratrol, or 20 μM trans-resveratrol in dark at 4° C. for 1.5 hours, before 1 μg of the pPD49.78 plasmid DNA were added to the reactions. After further incubation at 30° C. for 1 hour, the reactions were resolved on a 1% agarose gel. Three different forms of plasmid DNA are indicated.
FIG. 11. Stabilized trans-resveratrol enhances the nuclease activity of CPS-6 in a plasmid DNA cleavage assay and is resistant to UV irradiation. 10 ng of CPS-6 were incubated with 0.25% ethanol (Mock), 20 μM locked trans-resveratrol with or without UV irradiation, 20 μM trans-resveratrol with or without UV irradiation, and 20 μM cis-resveratrol with or without UV irradiation, respectively, in dark at 4° C. for 1.5 hours, before 1 μg of the pPD49.78 plasmid DNA were added to the reactions. After further incubation at 30° C. for 1 hour, the reactions were resolved on a 1% agarose gel. Three different forms of plasmid DNA are indicated. Resveratrol isomers or derivative were subjected to UV irradiation for 3 hours.
Because resveratrol is an antioxidant and the endonuclease activity of CPS-6 is regulated by redox conditions both in vitro and in vivo, we investigated the possibility that resveratrol isomers could directly affect the nuclease activity of CPS-6 using a plasmid DNA cleavage assay. Recombinant CPS-6 protein was incubated with the supercoiled plasmid DNA substrate in the presence or absence of 20 μM trans-resveratrol or cis-resveratrol and the reactions were resolved by an agarose gel. […] Since the nuclease activity of CPS-6 is required for PME, these in vitro results are consistent with the in vivo observations that trans-resveratrol enhances and cis-resveratrol inhibits PME.

[3] = test system: PME defect of lgg-1(bp523) embryos (autophagy pathway); experiment: PME microscopy assay in lgg-1(bp523) crosses; format: in vivo, C. elegans; conditions: FIG. 6c
From the text: (§1) The numbers of MTR-stained paternal mitochondrial clusters were scored as in FIG. 1a. cps-6(tm3222) and lgg-1(bp523) alleles were used in the assays. Data are mean±s.e.m. n=20 embryos (b) and 15 embryos (c) in each experiment. **P<0.01; ***P<0.001; n.s., not significant, two-sided, unpaired t-test.
(§2) To investigate how these six compounds might affect PME, the present inventors performed chemical genetic analysis to analyze the PME pathways that might be affected by the compounds. The present inventors first examined whether they might affect the paternal PME pathway mediated by the mitochondrial endonuclease CPS-6, whose activity is inhibited by oxidation and protected by reducing agents.

[4] = test system: PME defect of cps-6(tm3222) embryos; experiment: PME microscopy assay in cps-6(tm3222) crosses; format: in vivo, C. elegans; conditions: 64-cell embryos, scored as in FIG. 1a (FIG. 6b); DMSO control average of 17 clusters
From the text: as §1, §2

EndoG = conditions: stated in discussion, no test described; cited from earlier work

Row | Structure (SMILES) | effect on PME defect of cps-6(tm3222) embryos, screen compounds [4] | effect on PME in the screen [2] | further results
1 | Oc1ccc(/N=C/c2cc(O)cc(O)c2)cc1 |  |  | adult baIn11 animals with neurodegeneration (DA neuronal loss) [1]: 45%; dynamics of PME at different embryonic stages ([2]; 50 μM vs 0.25% ethanol mock (FIG. 1g, FIG. 12)): identical activity in promoting PME; effect on CPS-6 nuclease activity (CPS-6; 10 ng CPS-6, pPD49.78 plasmid DNA): similarly enhance the endonuclease activity of CPS-6 like trans-resveratrol; effect on CPS-6 nuclease activity after UV irradiation of the compound (CPS-6; compound UV irradiated for 3 hours (FIG. 11)): did not alter the activity
2 | O=c1cc(-c2ccc(O)cc2)oc2cc(O)cc(O)c12 [apigenin] | significantly increased the number of paternal mitochondrial clusters |  | enhancement of the PME defect in lgg-1 deficient embryos, screen compounds [3]: enhanced the PME defect
3 | O=C1O[C@H]([C@@H](O)CO)C(O)=C1O [ascorbic acid, reference compound] |  | did not inhibit PME | 
4 | CC1=C(/C=C/C(C)=C/C=C/C(C)=C/C=C/C=C(C)/C=C/C=C(C)/C=C/C2=C(C)C(=O)[C@@H](O)CC2(C)C)C(C)(C)C[C@H](O)C1=O [astaxanthin, reference compound] |  | did not inhibit PME | 
5 | O=c1cc(-c2ccccc2)oc2cc(O)c(O)c(O)c12 [baicalein] | significantly increased the number of paternal mitochondrial clusters |  | enhancement of the PME defect in lgg-1 deficient embryos, screen compounds [3]: not
6 | Oc1cc(O)c2c(c1)O[C@H](c1ccc(O)c(O)c1)[C@@H](O)C2 [catechinic acid, reference compound] |  | did not inhibit PME | 
7 | COc1cc(/C=C/C(=O)CC(=O)/C=C/c2ccc(O)c(OC)c2)ccc1O [curcumin] | significantly increased the number of paternal mitochondrial clusters |  | 
8 | Nc1nc2ncc(CNc3ccc(C(=O)N[C@@H](CCC(=O)O)C(=O)O)cc3)nc2c(=O)[nH]1 [folic acid, reference compound] |  | did not inhibit PME | 
9 | CC(CC(=O)C[C@@H](C)[C@H]1CC(=O)[C@@]2(C)C3=C(C(=O)C[C@]12C)[C@@]1(C)CC[C@H](O)C(C)(C)[C@@H]1C[C@@H]3O)C(=O)O (stereo partly shown) [ganoderic acid B] | significantly increased the number of paternal mitochondrial clusters |  | enhancement of the PME defect in lgg-1 deficient embryos, screen compounds [3]: enhanced the PME defect
10 | N[C@@H](CCC(=O)N[C@@H](CS)C(=O)NCC(=O)O)C(=O)O [glutathione, reference compound] |  | did not inhibit PME | 
11 | C[n+]1ccc(-c2cc[n+](C)cc2)cc1 [paraquat, reference compound] |  | inhibited PME | 
12 | O=c1c(O)c(-c2ccc(O)c(O)c2)oc2cc(O)cc(O)c12 [quercetin] | significantly increased the number of paternal mitochondrial clusters |  | 
13 | Oc1ccc(/C=C/c2cc(O)cc(O)c2)cc1 [resveratrol, 3,5,4′-trihydroxy-trans-stilbene] | did not affect the PME defect |  | enhancement of the PME defect in lgg-1 deficient embryos, screen compounds [3]: enhanced the PME defect; affinity of resveratrol to EndoG (EndoG): nanomolar affinity
14 | O=C(OC[C@H]1O[C@@H](OC(=O)c2cc(O)c(O)c(OC(=O)c3cc(O)c(O)c(O)c3)c2)[C@H](OC(=O)c2cc(O)c(O)c(OC(=O)c3cc(O)c(O)c(O)c3)c2)[C@@H](OC(=O)c2cc(O)c(O)c(OC(=O)c3cc(O)c(O)c(O)c3)c2)[C@@H]1OC(=O)c1cc(O)c(O)c(OC(=O)c2cc(O)c(O)c(O)c2)c1)c1cc(O)c(O)c(OC(=O)c2cc(O)c(O)c(O)c2)c1 [tannic acid, reference compound] |  | did not inhibit PME | 
